The test system of one experiment is Pyricularia oryzae. It is filed as in vivo. To be noted: 200 ppm; rice leaf segments; assessed four days after inoculation.
Experiment [1] has as its system Puccinia recondita f. sp. tritici. Nature of the experiment: Leaf disk assay, Puccinia recondita f. sp. tritici (wheat brown rust), preventive. Type of experiment: in vivo. The note with it: 200 ppm; wheat leaf segments; assessed nine days after inoculation. Here is the method:
The compounds were tested in a leaf disk assay, with methods described below. The test compounds were dissolved in DMSO and diluted into water to 200 ppm. In the case of the test on Pythium ultimum, they were dissolved in DMSO and diluted into water to 20 ppm.
Erysiphe graminis f. sp. hordei (barley powdery mildew): Barley leaf segments were placed on agar in a 24-well plate and sprayed with a solution of the test compound. After allowing to dry completely, for between 12 and 24 hours, the leaf disks were inoculated with a spore suspension of the fungus. After appropriate incubation the activity of a compound was assessed four days after inoculation as preventive fungicidal activity. Erysiphe graminis f. sp. tritici (wheat powdery mildew): Wheat leaf segments were placed on agar in a 24-well plate and sprayed with a solution of the test compound. After allowing to dry completely, for between 12 and 24 hours, the leaf disks were inoculated with a spore suspension of the fungus. After appropriate incubation the activity of a compound was assessed four days after inoculation as preventive fungicidal activity. […] After appropriate incubation the activity of a compound was assessed nine days after inoculation as preventive fungicidal activity. […] After appropriate incubation the activity of a compound was assessed four days after inoculation as preventive fungicidal activity.

Molecules are shown by their SMILES.

Data on two compounds can be found in US8193361B2, “I-alkynyl 2-aryloxyalkylamides and their use as fungicides” (Syngenta Limited, priority 2004, dated 2012).

Regarding `CC#CC(C)(C)NC(=O)C(Oc1ccc2oc3ccccc3c2c1)SC` (centres unmarked) [4 (16), 2-(dibenzofuranyl-2-oxy)-2-methylthio-N-(2-methylpent-3-yn-2-yl)acetamide], the “control of fungal infection” value in the experiment on Pyricularia oryzae is on record as “at least 60%”.
For `C#CC(C)(C)NC(=O)C(Oc1ccc2oc3ccccc3c2c1)SC` (centres unmarked) [1 (16)], the “control of fungal infection” value in experiment [1] is on record as “at least 60%”.
